# Data as given in patent US9884063B2, “Amido-substituted azole compounds” (Bayer Pharma Aktiengesellschaft, priority 2014, dated 2018).
# System: HEK293 FOP control reporter cell line
# Test: HEK293 FOP Assay (FOP control vector luciferase reporter)
# Type: cell-based
# Conditions: Homo sapiens; HEK293 FOP control reporter cell line, 16 hours incubation, compound dilution series 50 μM to 15 nM
# Procedure, shortened: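 Stable HEK293 line carrying the FOP vector (randomized, non-functional TCF sites; Geneticin-selected) was run in parallel with the TOP line. Cells were plated 24 h ahead at 10000/well and given recombinant human Wnt-3a at 2500–5 ng/ml. Compounds were tested at 50 μM–15 nM (3.16-fold steps) in CAFTY buffer, pH 7.4, with 2 mM Ca2+ and 0.01% BSA.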
row,Compound,IC50 [nM]
1,"CNC(=O)c1nc[nH]c1C(=O)Nc1ccc(NC(=O)c2ccccc2)cc1 [Example 21, N^5-[4-(benzoylamino)phenyl]-N^4-methyl-1H-imidazole-4,5-dicarboxamide]",35000

# Same assay, conditions: Homo sapiens; HEK293 FOP control reporter cells, 16 hours, luciferase; dilution series from 50 μM
row,Compound,IC50 [nM]
1,"CNC(=O)c1nc[nH]c1C(=O)Nc1ccc(NC(=O)c2ccccc2)cc1 [Example 21, N^5-[4-(benzoylamino)phenyl]-N^4-methyl-1H-imidazole-4,5-dicarboxamide]",35000
2,"CN(C)CCNC(=O)c1nc[nH]c1C(=O)Nc1ccc(NC(=O)c2ccc(F)cc2Cl)cc1 [Example 22, N^4-{4-[(2-chloro-4-fluorobenzoyl)amino]phenyl}-N^5-[2-(dimethylamino)ethyl]-1H-imidazole-4,5-dicarboxamide]",≥ 50000

# Biological target: T1, TNKS1 (Homo sapiens, UniProt O95271)
# T1 sequence (O95271 1-1327): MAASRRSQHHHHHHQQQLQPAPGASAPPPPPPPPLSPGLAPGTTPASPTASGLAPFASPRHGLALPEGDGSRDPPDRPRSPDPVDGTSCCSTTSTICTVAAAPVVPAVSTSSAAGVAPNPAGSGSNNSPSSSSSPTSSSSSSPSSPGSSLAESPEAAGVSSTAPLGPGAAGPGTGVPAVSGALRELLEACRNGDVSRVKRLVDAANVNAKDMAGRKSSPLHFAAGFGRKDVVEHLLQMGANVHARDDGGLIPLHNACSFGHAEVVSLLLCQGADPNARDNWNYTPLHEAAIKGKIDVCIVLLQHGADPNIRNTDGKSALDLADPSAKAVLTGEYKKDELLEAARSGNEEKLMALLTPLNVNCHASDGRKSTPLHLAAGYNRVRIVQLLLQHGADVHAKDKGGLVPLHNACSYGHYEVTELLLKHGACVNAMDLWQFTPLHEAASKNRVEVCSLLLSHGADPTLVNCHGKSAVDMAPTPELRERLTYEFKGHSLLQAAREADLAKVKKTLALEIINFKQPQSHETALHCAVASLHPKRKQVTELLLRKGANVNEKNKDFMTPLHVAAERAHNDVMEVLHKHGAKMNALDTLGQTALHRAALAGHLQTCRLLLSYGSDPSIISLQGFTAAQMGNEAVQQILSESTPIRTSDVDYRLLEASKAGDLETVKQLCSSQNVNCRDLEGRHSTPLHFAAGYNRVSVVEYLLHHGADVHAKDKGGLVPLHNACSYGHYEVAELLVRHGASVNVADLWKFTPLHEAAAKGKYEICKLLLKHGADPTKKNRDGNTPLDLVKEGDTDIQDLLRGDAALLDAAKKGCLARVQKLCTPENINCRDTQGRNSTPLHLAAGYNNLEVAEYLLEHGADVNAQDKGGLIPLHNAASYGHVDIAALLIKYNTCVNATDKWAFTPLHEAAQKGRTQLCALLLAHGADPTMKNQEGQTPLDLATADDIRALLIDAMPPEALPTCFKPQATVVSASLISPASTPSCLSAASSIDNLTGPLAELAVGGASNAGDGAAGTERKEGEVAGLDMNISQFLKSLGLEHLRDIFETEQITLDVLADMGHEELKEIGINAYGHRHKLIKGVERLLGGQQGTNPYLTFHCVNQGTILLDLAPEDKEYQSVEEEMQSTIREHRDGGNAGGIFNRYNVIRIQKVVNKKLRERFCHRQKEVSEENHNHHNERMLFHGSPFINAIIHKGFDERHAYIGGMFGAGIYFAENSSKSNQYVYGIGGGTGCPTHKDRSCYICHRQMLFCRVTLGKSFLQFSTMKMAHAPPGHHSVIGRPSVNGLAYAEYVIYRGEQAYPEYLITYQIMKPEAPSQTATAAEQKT
# Test: Modified TNKS1 Assay 2 (auto-parsylation, [3H]-NAD+ SPA)
# Type: biochemical
# Conditions: 6 nM TNKS1, 96 well
row,Compound,IC50 [nM]
1,"CNC(=O)c1nc[nH]c1C(=O)Nc1ccc(NC(=O)c2ccccc2)cc1 [Example 21, N^5-[4-(benzoylamino)phenyl]-N^4-methyl-1H-imidazole-4,5-dicarboxamide]",> 10000
2,"CNC(=O)c1nc[nH]c1C(=O)Nc1ccc(NC(=O)c2ccc(C)c(Cl)c2)cc1 [Example 344, N^5-{4-[(3-chloro-4-methylbenzoyl)amino]phenyl}-N^4-methyl-1H-imidazole-4,5-dicarboxamide]",> 10000
3,"CNC(=O)c1nc[nH]c1C(=O)Nc1ccc(NC(=O)c2cc(C#N)ccc2F)cc1 [Example 349, N^5-{4-[(5-cyano-2-fluorobenzoyl)amino]phenyl}-N^4-methyl-1H-imidazole-4,5-dicarboxamide]",2700
4,"CNC(=O)c1nc[nH]c1C(=O)Nc1ccc(NC(=O)c2cc(C(F)(F)F)ccc2Cl)cc1 [Example 352, N^5-(4-{[2-chloro-5-(trifluoromethyl)benzoyl]amino}phenyl)-N^4-methyl-1H-imidazole-4,5-dicarboxamide]",580
5,"CNC(=O)c1nc[nH]c1C(=O)Nc1ccc(NC(=O)c2cccc(Cl)n2)cc1 [Example 353, N^5-(4-{[(6-chloropyridin-2-yl)carbonyl]amino}phenyl)-N^4-methyl-1H-imidazole-4,5-dicarboxamide]",> 10000
6,"CNC(=O)c1nc[nH]c1C(=O)Nc1ccc(NC(=O)c2cc(F)ccc2Cl)cc1 [Example 361, N^5-{4-[(2-chloro-5-fluorobenzoyl)amino]phenyl}-N^4-methyl-1H-imidazole-4,5-dicarboxamide]",140
7,"CNC(=O)c1nc[nH]c1C(=O)Nc1ccc(NC(=O)c2cc(F)ccc2OC)cc1 [Example 364, N^5-{4-[(5-fluoro-2-methoxybenzoyl)amino]phenyl}-N^4-methyl-1H-imidazole-4,5-dicarboxamide]",6100
8,"CNC(=O)c1nc[nH]c1C(=O)Nc1ccc(NC(=O)c2cncc(C)c2)cc1 [Example 366, N^4-methyl-N^5-(4-{[(5-methylpyridin-3-yl)carbonyl]amino}phenyl)-1H-imidazole-4,5-dicarboxamide]",> 10000
9,"CNC(=O)c1nc[nH]c1C(=O)Nc1ccc(NC(=O)c2cccc(F)c2OC)cc1 [Example 367, N^5-{4-[(3-fluoro-2-methoxybenzoyl)amino]phenyl}-N^4-methyl-1H-imidazole-4,5-dicarboxamide]",> 10000
10,"CNC(=O)c1nc[nH]c1C(=O)Nc1ccc(NC(=O)c2cccc(F)c2Cl)cc1 [Example 370, N^5-{4-[(2-chloro-3-fluorobenzoyl)amino]phenyl}-N^4-methyl-1H-imidazole-4,5-dicarboxamide]",> 10000
11,"CNC(=O)c1nc[nH]c1C(=O)Nc1ccc(NC(=O)c2nccnc2Cl)cc1 [Example 372, N^5-(4-{[(3-chloropyrazin-2-yl)carbonyl]amino}phenyl)-N^4-methyl-1H-imidazole-4,5-dicarboxamide]",5700
12,"CNC(=O)c1nc[nH]c1C(=O)Nc1ccc(NC(=O)c2c(C)cccc2F)cc1 [Example 375, N^5-{4-[(2-fluoro-6-methylbenzoyl)amino]phenyl}-N^4-methyl-1H-imidazole-4,5-dicarboxamide]",1200
13,"O=C(Nc1ccc(NC(=O)c2nc[nH]c2C(=O)NCCN2CCCCC2)cc1)c1ccccc1Cl [Example 381, N^4-{4-[(2-chlorobenzoyl)amino]phenyl}-N^5-[2-(piperidin-1-yl)ethyl]-1H-imidazole-4,5-dicarboxamide]",20
14,"CCN(CC)CCCCNC(=O)c1nc[nH]c1C(=O)Nc1ccc(NC(=O)c2ccc(F)cc2Cl)cc1 [Example 393, N^5-{4-[(2-chloro-4-fluorobenzoyl)amino]phenyl}-N^4-[4-(diethylamino)butyl]-1H-imidazole-4,5-dicarboxamide]",300
15,"O=C(Nc1ccc(NC(=O)c2[nH]cnc2C(=O)NCCc2ccncc2)cc1)c1ccc(F)cc1Cl [Example 394, N^5-{4-[(2-chloro-4-fluorobenzoyl)amino]phenyl}-N^4-[2-(pyridin-4-yl)ethyl]-1H-imidazole-4,5-dicarboxamide]",50
16,"O=C(Nc1ccc(NC(=O)c2nc[nH]c2C(=O)NCC2CCOCC2)cc1)c1ccc(F)cc1Cl [Example 397, N^5-{4-[(2-chloro-4-fluorobenzoyl)amino]phenyl}-N^4-(tetrahydro-2H-pyran-4-ylmethyl)-1H-imidazole-4,5-dicarboxamide]",240

# Results, then the molecule that gave them:
row,IC50 [nM],Compound
1,10,"CN(C)CCNC(=O)c1nc[nH]c1C(=O)Nc1ccc(NC(=O)c2ccc(F)cc2Cl)cc1 [Example 22, N^4-{4-[(2-chloro-4-fluorobenzoyl)amino]phenyl}-N^5-[2-(dimethylamino)ethyl]-1H-imidazole-4,5-dicarboxamide]"
2,2000,"CNC(=O)c1nc[nH]c1C(=O)Nc1ccc(NC(=O)c2ncccc2C)cc1 [Example 356, N^4-methyl-N^5-(4-{[(3-methylpyridin-2-yl)carbonyl]amino}phenyl)-1H-imidazole-4,5-dicarboxamide]"
3,> 10000,"CNC(=O)c1nc[nH]c1C(=O)Nc1ccc(NC(=O)c2ccc(F)c(Cl)c2F)cc1 [Example 359, N^5-{4-[(3-chloro-2,4-difluorobenzoyl)amino]phenyl}-N^4-methyl-1H-imidazole-4,5-dicarboxamide]"
4,> 10000,"CNC(=O)c1nc[nH]c1C(=O)Nc1ccc(NC(=O)c2cc(C)ccn2)cc1 [Example 363, N^4-methyl-N^5-(4-{[(4-methylpyridin-2-yl)carbonyl]amino}phenyl)-1H-imidazole-4,5-dicarboxamide]"
5,1600,"CNC(=O)c1nc[nH]c1C(=O)Nc1ccc(NC(=O)c2c(F)ccc(F)c2Cl)cc1 [Example 374, N^5-{4-[(2-chloro-3,6-difluorobenzoyl)amino]phenyl}-N^4-methyl-1H-imidazole-4,5-dicarboxamide]"
6,> 10000,"CNC(=O)c1nc[nH]c1C(=O)Nc1ccc(NC(=O)c2ccon2)cc1 [Example 376, N^4-methyl-N^5-{4-[(1,2-oxazol-3-ylcarbonyl)amino]phenyl}-1H-imidazole-4,5-dicarboxamide]"
7,470,"CNC(=O)c1nc[nH]c1C(=O)Nc1ccc(NC(=O)c2cc(F)c(F)cc2C)cc1 [Example 377, N^5-{4-[(4,5-difluoro-2-methylbenzoyl)amino]phenyl}-N^4-methyl-1H-imidazole-4,5-dicarboxamide]"
8,1500,"O=C(Nc1ccc(NC(=O)c2[nH]cnc2C(=O)NCCc2ccccc2)cc1)c1ccc(F)cc1Cl [Example 384, N^5-{4-[(2-chloro-4-fluorobenzoyl)amino]phenyl}-N^4-(2-phenylethyl)-1H-imidazole-4,5-dicarboxamide]"
9,100,"O=C(Nc1ccc(NC(=O)c2[nH]cnc2C(=O)NCCc2ccccn2)cc1)c1ccc(F)cc1Cl [Example 387, N^5-{4-[(2-chloro-4-fluorobenzoyl)amino]phenyl}-N^4-[2-(pyridin-2-yl)ethyl]-1H-imidazole-4,5-dicarboxamide]"
10,100,"O=C(Nc1ccc(NC(=O)c2[nH]cnc2C(=O)NCCc2cccnc2)cc1)c1ccc(F)cc1Cl [Example 405, N^5-{4-[(2-chloro-4-fluorobenzoyl)amino]phenyl}-N^4-[2-(pyridin-3-yl)ethyl]-1H-imidazole-4,5-dicarboxamide]"
